Test results taken from article PMC3977574, “Structural Basis of Mos1 Transposase Inhibition by the Anti-retroviral Drug Raltegravir” (ACS Chemical Biology, 2014).

Target: T1, Mos1 transposase (Drosophila mauritiana, UniProt Q7JQ07, T216A)
T1 construct: gene mariner\T; Mos1 transposase catalytic domain (crystal); Mos1 transposase and paired-end complex (thermal denaturation and activity assays)
Assay: X-ray co-crystal structures at […] Å (soak); thermal denaturation shift; strand transfer assay IC50 […]; plasmid cleavage assay IC50 […]
Type: biochemical

T1 sequence (Q7JQ07 whole entry T216A, the tested form may be a part): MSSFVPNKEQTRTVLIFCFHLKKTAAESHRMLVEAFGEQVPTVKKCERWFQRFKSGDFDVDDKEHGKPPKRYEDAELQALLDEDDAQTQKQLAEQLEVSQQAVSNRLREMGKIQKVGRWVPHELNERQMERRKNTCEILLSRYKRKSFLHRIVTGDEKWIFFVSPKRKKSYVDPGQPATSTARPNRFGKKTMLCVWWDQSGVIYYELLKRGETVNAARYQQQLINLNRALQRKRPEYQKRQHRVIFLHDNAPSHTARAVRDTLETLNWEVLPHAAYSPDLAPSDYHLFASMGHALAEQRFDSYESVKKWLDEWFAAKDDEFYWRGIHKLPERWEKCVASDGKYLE

SMILES: Cc1nnc(C(=O)NC(C)(C)c2nc(C(=O)NCc3ccc(F)cc3)c(O)c(=O)n2C)o1 [Raltegravir]
- IC50: ~2000 nM
